Measured values from US8021661B2, “Cripto binding molecules” (Biogen Idec MA Inc., priority 2005, dated 2011).

Key:
NCCIT xenograft tumors = test: Established NCCIT human testicular carcinoma xenografts; format: in vivo, athymic nude mice; details: cis-platinum 2 mg/kg/injection SC 3×/wk×6; Day 20 to Day 66
Method: Treatments were initiated on Day 15 when the tumors reached a minimum change in size of 100 mg.
One hundred fifty (150) male athymic nude mice (Harlan Sprague Dawley, Madison, Wis.) were started on the study at seven to eight weeks of age. Animals were acclimated to the laboratory for at least five days prior to implantation of the tumor. Housing was in ventilated cage racks, and food and water were allowed ad libitum.
NCCIT cells were obtained from the American Tissue Type Collection (Manassas, Va.). The cell line was passed in vitro 4 times prior to implantation. Cells were grown in vitro in RPMI-1640+10% fetal bovine serum (FBS) media without antibiotics (5% CO2).
An inoculum of 5×10^6 NCCIT cells in 200 L RPMI-1640 without serum (25%) plus Matrigel (75%) was implanted SC into the right flank area on Day 0. Tumor size and body weight measurements were recorded at least twice weekly beginning on Day 6. On Day 15, mice with tumors with a minimum increase in tumor weight of 100 mg and a maximum increase of 244 mg, excluding tumors with non-progressive growth, were randomized to treatment and control groups (see Table 12). […]
Tumor measurements were determined using digital calipers. Body weights and tumor size measurements were recorded on Day 6 and were continued at least twice weekly until the termination of the study. […]

Calu-6 xenograft tumors = test: Established Calu-6 human lung xenografts; format: in vivo, athymic nude mice; details: irinotecan 10 mg/kg on Day 13-14, 17-21, 24-26; Day 20 until Day 45
Method: One hundred sixty (160) female athymic nude mice (Harlan Sprague Dawley, Madison, Wis.) were started on the study at eight to nine weeks of age. Animals were acclimated to the laboratory for at least five days prior to implantation of the tumor. Housing was in ventilated cage racks, and food and water were allowed ad libitum.
Calu-6 cells were obtained from the American Tissue Type Collection (Manassas, Va.). The cell line was passed in vitro 11 times prior to implantation. Cells were grown in vitro in RPMI-1640+10% fetal bovine serum (FBS) media without antibiotics (5% CO2). Bacterial cultures were performed on aliquots of the tumor homogenate preparation that was implanted into the mice.
On Day −1, the mice were implanted SC with BioMedics animal ID chips (Model IMI-1000; Seaford, Del.) subcutaneously on the left flank. An inoculum of 5×10^6 Calu-6 cells in 200 μL RPMI-1640 without serum was implanted SC into the right flank area on Day 0. Tumor size and body weight measurements were recorded at least twice weekly beginning on Day 4. When the tumors measured a minimum of 100 mg, the mice were randomized to treatment and control groups (see Table 13). […]
Tumor measurements were determined using digital calipers. Body weights and tumor size measurements were recorded on Day 4 and were continued twice weekly until the termination of the study. […]

BT-474 xenograft tumors = test: Established BT-474 human breast tumor xenografts, full-length B3F6.1-DM4; format: in vivo, athymic nude mice; details: Taxol 25 mg/kg IP q4d×3 starting Day 15
Excerpt: One hundred forty (140) female athymic nude mice (Harlan Sprague Dawley, Madison, Wis.) were started on the study at ten weeks of age. Animals were acclimated to the laboratory for at least five days prior to implantation of the tumor. Housing was in ventilated cage racks, and food and water were allowed ad libitum.
BT-474 tumors were obtained from cryopreserved solid tumor fragments from a serially passaged in vivo donor line established at Biogen Idec (cryo reg #0141, established originally from cells obtained from the […] (Manassas, Va.)). Tumor fragments were removed from cryopreservation and serially passaged SC in vivo for 3 generations in female athymic nude mice prior to implantation for this study. […]
On Day −1, the mice were implanted with BioMedics animal ID chips (Model IMI-1000; Seaford, Del.) SC on the left flank. […] Tumor size and body weight measurements were recorded at least twice weekly beginning on Day 5. When the tumors measured a minimum of 100 mg (Day 15), mice were randomized to treatment and control groups (see Table 10) based on tumor size and excluding tumors with non-progressive growth. […]
Tumor measurements were determined using digital calipers. Body weights and tumor size measurements were recorded on Day 0 and were continued twice weekly until the termination of the study. […]

[1] = Size exclusion chromatography of purified antibody; format: physicochemical; details: purified using only the Protein G column
Method: Antibody was produced and purified using methods described in Example 4 above. […] Reduced and non-reduced purified protein samples were analyzed by SDS-PAGE electrophoresis. Under non-reducing conditions, Form A is expected to migrate as a single 120 kDa homodimer and Form B as a 60 kDa doublet.
Reduced and non-reduced purified protein samples were analyzed by SDS-PAGE electrophoresis. Under these conditions, Form A is expected to migrate as a single 120 kDa homodimer and Form B as a 60 kDa doublet.

N.N.[Cl][Pt][Cl] [Cis-platinum, cisplatin]
inhibition of tumor growth (NCCIT xenograft tumors): significant inhibition (P<0.05) of tumor growth from Day 20 to Day 66

CCc1c2c(nc3ccc(OC(=O)N4CCC(N5CCCCC5)CC4)cc13)-c1cc3c(c(=O)n1C2)COC(=O)[C@]3(O)CC [Irinotecan, irinotecan]
inhibition of tumor growth (Calu-6 xenograft tumors): significant (P<0.001) inhibition of tumor growth

CC(=O)O[C@H]1C(=O)[C@@]2(C)[C@H]([C@H](OC(=O)c3ccccc3)[C@]3(O)C[C@H](OC(=O)[C@H](O)[C@@H](NC(=O)c4ccccc4)c4ccccc4)C(C)=C1C3(C)C)[C@]1(OC(C)=O)CO[C@@H]1C[C@@H]2O [Taxol, paclitaxel]
inhibition of tumor growth (BT-474 xenograft tumors): significant (P<0.05) inhibition of tumor growth from Day 26 to Day 50

B1: chimeric dd-B3F6: CH2 domain-deleted chimeric B3F6 with connecting peptide SEQ ID NO: 5; heavy chain SEQ ID NO: 3, light chain SEQ ID NO: 4 (antibody)
heavy: QVQLQQVGAELVKPGASVKLSCKASGYTFTSYWIHWVKQRPGQGLEWIGENDPSNGRTNYNEKFKNKATLTVDKSSSTAYMHLSSLTSEDSAVYYCSRGPNYFYSMDYWGQGTSVTVSSASTKGPSVFPLAPSSKSTSGGTAALGCLVKDYFPEPVTVSWNSGALTSGVHTFPAVLQSSGLYSLSSVVTVPSSSLGTQTYICNVNHKPSNTKVDKKVEPKSCDKTHTCPPCPEPKSCDTPPPCPRCPAPGGGSSGGGSGGQPREPQVYTLPPSRDELTKNQVSLTCLVKGFYPSDIAVEWESNGQPENNYKTTPPVLDSDGSFFLYSKLTVDKSRWQQGNVFSCSVMHEALHNHYTQKSLSLSPG
light: DFLMTQTPLSLPVSLGDQASISCRSSQSIVHSNGNTYLEWYLQKPGQSPKLLIYKVSNRFSGVPDRFSGSGSGTDFTLKISRVEAEDLGVYYCFQGSHVPLTFGAGTKLELKRTVAAPSVFIFPPSDEQLKSGTASVVCLLNNFYPREAKVQWKVDNALQSGNSQESVTEQDSKDSTYSLSSTLTLSKADYEKHKVYACEVTHQGLSSPVTKSFNRGEC
monomer (size exclusion chromatography) [1]: 93-98%
